Key:
Type in all cases: physicochemical
[1] = humidity stress experiment (stability of the amorphous compound in relative humidity chambers, XRD pattern analysed); settings: 75% RH stress, 5-7 days
[2] = vapour stress experiment (stability of the amorphous compound under solvent vapours, XRD pattern analysed); settings: 5-7 days; for Result / XRD: vapour stress
Description: (§1) The following experiments were performed to evaluate the stability of the amorphous compound under various solvent vapours and controlled humidity conditions.
A vapour stress experiment was performed by placing about 25 mg of the amorphous compound of Example 1 into an unsealed vial, placing the vial in a large sealed container containing 1 mL of the selected solvent, and after 5-7 days, analyzing the XRD pattern of the sample.
(§2) The vapour stress and humidity stress experimental methods are methods used as methods for generating stable solvates or hydrates because, when a substance is exposed to vapours, a solid is plasticized, and molecular mobility is […]. However, for the amorphous compound of Example 1, the amorphous compound was maintained under various conditions according to the above experimental methods. Thus, it was confirmed that the amorphous compound was stable under the corresponding conditions.

[3] = humidity stress experiment (stability of the amorphous compound in relative humidity chambers, XRD pattern analysed); settings: 5-7 days
Description: as §1
In addition, a humidity stress experiment was performed by placing about 25 mg of the amorphous compound of Example 1 in individual vials, storing the vials in an unsealed state in various relative humidity chambers (23% RH, 59% RH, 7% RH, 98% RH, 40° C./75% RH) for 5-7 days, and analyzing the XRD pattern.
as §2

For `CC(C)C(=O)N([C@H]1C[C@@H](C(=O)N2CCOCC2)N(C(=O)[C@@H]2CN(C(C)(C)C)C[C@H]2c2ccc(Cl)cc2)C1)[C@H]1CC[C@@H](C)CC1` [Example 1, N-((3S,5S)-1-((3S,4R)-1-(tert-butyl)-4-(4-chlorophenyl)pyrrolidine-3-carbonyl)-5-(morpholine-4-carbonyl)pyrrolidin-3-yl)-N-((1s,4R)-4-methylcyclohexyl)isobutyramide], the XRD [1] was “Amorphous”, the Result ([2]; 2-Me-THF) was “Solid” and the XRD ([2]; 2-Me-THF) was “Amorphous”. The Result ([2]; ACS) was “Solid”, the XRD ([2]; ACS) was “Amorphous” and the Result ([2]; Acetone) was “Solid”. The XRD ([2]; Acetone) was “Amorphous”, the Result ([2]; Benzyl alcohol) was “Solid” and the XRD ([2]; Benzyl alcohol) was “Amorphous”. The Result ([2]; Chlorobenzene) was “Solid”, the XRD ([2]; Chlorobenzene) was “Amorphous” and the Result ([2]; Chloroform) was “Solid”. The XRD ([2]; Chloroform) was “Amorphous”, the Result ([2]; DCM) was “Solid” and the XRD ([2]; DCM) was “Amorphous”. For the same compound, the Result ([2]; DME) was “Solid”, the XRD ([2]; DME) was “Amorphous” and the Result ([2]; DMSO) was “Solid”. For the same compound, the XRD ([2]; DMSO) was “Amorphous”, the Result ([2]; Ethanol) was “Solid” and the XRD ([2]; Ethanol) was “Amorphous”. The Result ([2]; Formamide) was “Solid”, the XRD ([2]; Formamide) was “Amorphous” and the Result ([2]; HFIPA) was “Solid”. The XRD ([2]; HFIPA) was “Amorphous”, the Result ([2]; Heptane) was “Solid” and the XRD ([2]; Heptane) was “Amorphous”. The Result ([2]; IPA) was “Solid”, the XRD ([2]; IPA) was “Amorphous” and the Result ([2]; MEK) was “Solid”. For the same compound, the XRD ([2]; MEK) was “Amorphous”, the Result ([2]; MeOH) was “Solid” and the XRD ([2]; MeOH) was “Amorphous”. The Result ([2]; NMP) was “Solid”, the XRD ([2]; NMP) was “Amorphous” and the Result ([2]; Nitromethane) was “Solid”. The XRD ([2]; Nitromethane) was “Amorphous”, the Result ([2]; Pyridine) was “Solid” and the XRD ([2]; Pyridine) was “Amorphous”. For the same compound, the Result ([2]; THE) was “Solid”, the XRD ([2]; THE) was “Amorphous” and the Result ([2]; Water) was “Solid”. The XRD ([2]; Water) was “Amorphous”, the “stability of the amorphous compound under vapour stress conditions” value ([2]; various solvent vapours) was “stable” and the Result ([3]; 23% RH stress) was “Solid”. For the same compound, the XRD ([3]; 23% RH stress) was “Amorphous”, the Result ([3]; 40° C./75% RH stress) was “Solid” and the XRD ([3]; 40° C./75% RH stress) was “Amorphous”. The Result ([3]; 59% RH stress) was “Solid”, the XRD ([3]; 59% RH stress) was “Amorphous” and the Result ([3]; 75% RH stress) was “Solid”. The Result ([3]; 98% RH stress) was “Solid”, the XRD ([3]; 98% RH stress) was “Amorphous” and the “stability of the amorphous compound under humidity stress conditions” value ([3]; controlled humidity conditions) was “stable”.

Source: patent US20240059652A1, “AMORPHOUS MELANOCORTIN RECEPTOR AGONIST AND METHOD FOR PREPARING SAME” (LG CHEM, LTD., priority 2020, published 2024)
